Experimental findings from ChEMBL document CHEMBL3137667, “[Drug-induced liver injury; fourteenth updated edition of the bibliographic database of liver injuries and related drugs]” (Gastroenterol Clin Biol, 2004) are described below.

The conditions of series [1]: human, serum, 4383 h.
For series [2] the following is noted: human.
For series [3] the following is noted: human. This is another data set of the same source.
The conditions of series [4]: human. The source holds these as a separate data set.
The conditions of series [5]: human. The source holds these as a separate data set.
Series [6] can be described thus: Highest frequency of moderate liver toxicity observed during clinical trials, expressed as a percentage. [column '% BIOL' in source]. The following applies: human.
For series [7] the following is noted: human, serum.
For series [8] the following is noted: human. This is another data set of the same source.
The conditions of series [9]: human. The source holds these as a separate data set.
The conditions of series [10]: human. This is another data set of the same source.
The conditions of series [11]: human, serum. This is another data set of the same source.
A short description of series [12]: Highest frequency of acute liver toxicity observed during clinical trials, expressed as a percentage. [column '% AIGUE' in source]. To be noted: human.
The conditions of series [13]: human. This is another data set of the same source.
For series [14] the following is noted: human. The source holds these as a separate data set.
The nature of series [15]: Times to onset, minimal and maximal, observed in the indexed observations. [column 'DELAI' in source]. To be noted: human.
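Throughout, for Hepatotoxicity (association with vascular disease): count of indexed literature references reporting vascular liver injury in humans, e.g. peliosis hepatitis, hepatic veno-occlusive disease or Budd-Chiari syndrome.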
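Throughout, for Hepatotoxicity (benign tumour): value is a count of indexed literature references citing a benign tumour confirmed by histopathology.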
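Throughout, for Hepatotoxicity (choleostasis): human cholestatic liver injury, shown by histopathology or by peak ALT or AST elevation over alkaline phosphatase ratio below 2, value counts indexed literature reports.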
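Throughout, for Hepatotoxicity (chronic liver disease): chronic liver injury confirmed by histopathology or persistently raised serum aminotransferase activity beyond 6 months, value given as the count of indexed literature references.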
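Throughout, for Hepatotoxicity (cirrhosis): value is a count of indexed literature references reporting cirrhosis confirmed by histopathology.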
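Throughout, for Hepatotoxicity (cytolytic): human cytolytic liver injury, shown by histopathology or by a ratio above 5 of peak ALT or AST elevation to alkaline phosphatase elevation, value counts indexed references.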
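Throughout, for Hepatotoxicity (granulomatous hepatitis): value is a count of indexed literature references reporting granulomatous liver disease confirmed by histopathology.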
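Throughout, for Hepatotoxicity (malignant tumour): malignant tumour confirmed by histopathology, value gives the count of indexed literature references reporting it.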
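Throughout, for Hepatotoxicity (severe hepatitis): human clinical data: severe hepatitis, meaning potentially life-threatening liver failure or clinically observed cases, the value counts how many indexed literature references report it.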
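Throughout, for Hepatotoxicity (steatosis): steatosis confirmed by histopathology, value is the count of indexed references.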

For the compound `CCOC(=O)Nc1ccc2c(c1)N(C(=O)CCN1CCOCC1)c1ccccc1S2` [MORICIZINE], the “Hepatotoxicity (chronic liver disease)” value in [1] stood at 0. For the same compound, the “Hepatotoxicity (cirrhosis)” value in series [2] was 0. Besides, the “Hepatotoxicity (cytolytic)” value in series [3] is reported as 0. The “Hepatotoxicity (benign tumour)” value in series [4] was 0. Also, the “Hepatotoxicity (steatosis)” value in series [5] amounted to 0. Moreover, the “Hepatotoxicity (moderate)” value is reported as 1.2% in series [6] and 4 in series [11]. In addition, the entries for the “Hepatotoxicity (acute)” value in [7] and in series [12] were 0 and 0%, respectively. Also, the “Hepatotoxicity (choleostasis)” value in series [8] turned out to be 0. The “Hepatotoxicity (severe hepatitis)” value in series [9] is listed as 0. Further, the “Hepatotoxicity (granulomatous hepatitis)” value in series [10] was found to be 0. Moreover, the “Hepatotoxicity (malignant tumour)” value in series [13] stood at 0. The “Hepatotoxicity (association with vascular disease)” value in series [14] turned out to be 0. The “Hepatotoxicity (time to onset)” value in series [15] came to 6 days.

Turning to `CC(=O)[C@H]1CC[C@H]2[C@@H]3CC[C@@H]4C[C@H](O)CC[C@]4(C)[C@H]3CC[C@]12C` [ELTANOLONE], the “Hepatotoxicity (chronic liver disease)” value in series [1] is recorded as 0. Moreover, the “Hepatotoxicity (cirrhosis)” value in [2] came out at 0. In addition, in series [3], the “Hepatotoxicity (cytolytic)” value was determined as 0. Also, the “Hepatotoxicity (benign tumour)” value in series [4] was found to be 0. Also, the “Hepatotoxicity (steatosis)” value in series [5] was 0. Besides, the “Hepatotoxicity (moderate)” value in series [6] is given as 12.6%; in [11], 2. Moreover, the entries for the “Hepatotoxicity (acute)” value in series [7] and in [12] were 0 and 0%, respectively. For the same compound, the “Hepatotoxicity (choleostasis)” value in [8] is given as 0. Further, the “Hepatotoxicity (severe hepatitis)” value in series [9] came to 0. Also, the “Hepatotoxicity (granulomatous hepatitis)” value in series [10] is recorded as 0. In series [13], the “Hepatotoxicity (malignant tumour)” value worked out at 0. The “Hepatotoxicity (association with vascular disease)” value in [14] was 0. In addition, in series [15], the “Hepatotoxicity (time to onset)” value worked out at 1 days.

`CCN[C@@H](C)Cc1cccc(C(F)(F)F)c1` [DEXFENFLURAMINE]: the “Hepatotoxicity (chronic liver disease)” value in [1] is reported as 0. In [2], the “Hepatotoxicity (cirrhosis)” value is 1. Also, the “Hepatotoxicity (cytolytic)” value in [3] was found to be 0. The “Hepatotoxicity (benign tumour)” value in [4] stood at 0. Besides, the “Hepatotoxicity (steatosis)” value in [5] amounted to 0. Also, the “Hepatotoxicity (moderate)” value in [6] is recorded as 0%; in series [11], 0. The “Hepatotoxicity (acute)” value is recorded as 0 in series [7] and 0% in series [12]. The “Hepatotoxicity (choleostasis)” value in series [8] is 0. In addition, the “Hepatotoxicity (severe hepatitis)” value in [9] amounted to 0. In addition, the “Hepatotoxicity (granulomatous hepatitis)” value in series [10] came to 0. The “Hepatotoxicity (malignant tumour)” value in series [13] stood at 0. Moreover, the “Hepatotoxicity (association with vascular disease)” value in [14] is 0. Moreover, in series [15], the “Hepatotoxicity (time to onset)” value came to 4 years.

As for MUROMONAB-CD3, the “Hepatotoxicity (chronic liver disease)” value in series [1] came to 0. Moreover, the “Hepatotoxicity (cirrhosis)” value in series [2] is given as 0. In [3], the “Hepatotoxicity (cytolytic)” value came to 1. Further, the “Hepatotoxicity (benign tumour)” value in series [4] amounted to 0. In addition, the “Hepatotoxicity (steatosis)” value in [5] stood at 0. In addition, the “Hepatotoxicity (moderate)” value in series [6] was 0%; in series [11], 0. In addition, the figures for the “Hepatotoxicity (acute)” value in series [7] and in [12] were 1 and 0%, respectively. Further, the “Hepatotoxicity (choleostasis)” value in [8] is recorded as 0. The “Hepatotoxicity (severe hepatitis)” value in series [9] turned out to be 0. Further, the “Hepatotoxicity (granulomatous hepatitis)” value in series [10] was determined as 0. In addition, in series [13], the “Hepatotoxicity (malignant tumour)” value is 0. Also, the “Hepatotoxicity (association with vascular disease)” value in [14] turned out to be 0. In addition, in [15], the “Hepatotoxicity (time to onset)” value stood at 1 days.

On to `O=C(NCN1CCOCC1)c1cnccn1` [MORINAMIDE], for which, in [1], the “Hepatotoxicity (chronic liver disease)” value is 0. Further, the “Hepatotoxicity (cirrhosis)” value in series [2] stood at 0. Moreover, the “Hepatotoxicity (cytolytic)” value in [3] came to 2. Further, in [4], the “Hepatotoxicity (benign tumour)” value is recorded as 0. The “Hepatotoxicity (steatosis)” value in series [5] is 0. Besides, the “Hepatotoxicity (moderate)” value in [6] is 1.8%; in [11], 2. The “Hepatotoxicity (acute)” value in series [7] is 2; in series [12], 0.5%. In addition, the “Hepatotoxicity (choleostasis)” value in series [8] stood at 0. Also, the “Hepatotoxicity (severe hepatitis)” value in [9] worked out at 1. Moreover, the “Hepatotoxicity (granulomatous hepatitis)” value in series [10] amounted to 0. Also, the “Hepatotoxicity (malignant tumour)” value in series [13] is given as 0. Moreover, the “Hepatotoxicity (association with vascular disease)” value in [14] is recorded as 0. Besides, the “Hepatotoxicity (time to onset)” value in series [15] came to 4 months.

For `CC(=O)CCCCn1c(=O)c2c(ncn2C)n(C)c1=O` [PENTOXIFYLLINE], the “Hepatotoxicity (chronic liver disease)” value in series [1] was 0. The “Hepatotoxicity (cirrhosis)” value in [2] is on record as 0. Further, the “Hepatotoxicity (cytolytic)” value in series [3] worked out at 0. In series [4], the “Hepatotoxicity (benign tumour)” value turned out to be 0. In addition, in [5], the “Hepatotoxicity (steatosis)” value is recorded as 0. For the same compound, the “Hepatotoxicity (moderate)” value came out at 0% in [6] and 0 in series [11]. Besides, the “Hepatotoxicity (acute)” value in series [7] is listed as 2; in [12], 0%. Further, the “Hepatotoxicity (choleostasis)” value in series [8] is 2. In addition, the “Hepatotoxicity (severe hepatitis)” value in series [9] is reported as 0. Also, in series [10], the “Hepatotoxicity (granulomatous hepatitis)” value is given as 0. Besides, the “Hepatotoxicity (malignant tumour)” value in series [13] was determined as 0. Moreover, the “Hepatotoxicity (association with vascular disease)” value in [14] was 0. Further, the “Hepatotoxicity (time to onset)” value in series [15] was 3 weeks.

As for `Cc1c(O)c(=O)ccn1C` [DEFERIPRONE], the “Hepatotoxicity (chronic liver disease)” value in series [1] came to 0. For the same compound, in [2], the “Hepatotoxicity (cirrhosis)” value is 0. In series [3], the “Hepatotoxicity (cytolytic)” value is 1. Moreover, the “Hepatotoxicity (benign tumour)” value in series [4] was found to be 0. For the same compound, in series [5], the “Hepatotoxicity (steatosis)” value was found to be 0. Also, the “Hepatotoxicity (moderate)” value in [6] is listed as 59.5%; in series [11], 8. Further, the “Hepatotoxicity (acute)” value in series [7] is recorded as 1; in series [12], 1.2%. In series [8], the “Hepatotoxicity (choleostasis)” value was 0. The “Hepatotoxicity (severe hepatitis)” value in series [9] is listed as 0. Besides, in [10], the “Hepatotoxicity (granulomatous hepatitis)” value is 0. In series [13], the “Hepatotoxicity (malignant tumour)” value came to 0. In addition, the “Hepatotoxicity (association with vascular disease)” value in series [14] is listed as 0. In series [15], the “Hepatotoxicity (time to onset)” value is reported as 3 months.

Regarding `CN(C)CC(Oc1ccccc1)Oc1ccccc1` [MEDIFOXAMINE], the “Hepatotoxicity (chronic liver disease)” value in [1] was found to be 0. For the same compound, the “Hepatotoxicity (cirrhosis)” value in series [2] was 0. In series [3], the “Hepatotoxicity (cytolytic)” value is 1. Besides, the “Hepatotoxicity (benign tumour)” value in series [4] was 0. Also, the “Hepatotoxicity (steatosis)” value in [5] worked out at 0. Besides, the “Hepatotoxicity (moderate)” value in [6] is 0%; in series [11], 0. Moreover, the “Hepatotoxicity (acute)” value in series [7] turned out to be 1; in series [12], 0%. Further, the “Hepatotoxicity (choleostasis)” value in series [8] is given as 0. In addition, the “Hepatotoxicity (severe hepatitis)” value in series [9] is reported as 2. In addition, the “Hepatotoxicity (granulomatous hepatitis)” value in series [10] was 0. For the same compound, the “Hepatotoxicity (malignant tumour)” value in series [13] was found to be 0. In addition, in series [14], the “Hepatotoxicity (association with vascular disease)” value was found to be 0. Also, the “Hepatotoxicity (time to onset)” value in [15] is listed as 6 days.

As to `CC(=O)Nc1ccc(OC(=O)c2ccccc2OC(C)=O)cc1` [BENORILATE], the “Hepatotoxicity (chronic liver disease)” value in [1] was 0. Also, the “Hepatotoxicity (cirrhosis)” value in [2] is recorded as 0. In addition, the “Hepatotoxicity (cytolytic)” value in [3] was found to be 2. Moreover, the “Hepatotoxicity (benign tumour)” value in series [4] was found to be 0. In addition, the “Hepatotoxicity (steatosis)” value in series [5] worked out at 0. For the same compound, the “Hepatotoxicity (moderate)” value in series [6] was determined as 0%; in [11], 0. The “Hepatotoxicity (acute)” value in series [7] is 2; in [12], 0%. For the same compound, in series [8], the “Hepatotoxicity (choleostasis)” value worked out at 0. Further, the “Hepatotoxicity (severe hepatitis)” value in [9] amounted to 1. The “Hepatotoxicity (granulomatous hepatitis)” value in [10] is given as 0. In addition, the “Hepatotoxicity (malignant tumour)” value in [13] worked out at 0. Also, the “Hepatotoxicity (association with vascular disease)” value in [14] is on record as 0. In [15], the “Hepatotoxicity (time to onset)” value is listed as 3 weeks.

As to `C[C@H]1[C@H](NC(=O)/C(=N\OC(C)(C)C(=O)O)c2csc(N)n2)C(=O)N1S(=O)(=O)O` [AZTREONAM], in series [1], the “Hepatotoxicity (chronic liver disease)” value is recorded as 0. Besides, the “Hepatotoxicity (cirrhosis)” value in series [2] is 0. The “Hepatotoxicity (cytolytic)” value in series [3] turned out to be 1. Besides, in series [4], the “Hepatotoxicity (benign tumour)” value was 0. Also, the “Hepatotoxicity (steatosis)” value in series [5] is listed as 0. For the same compound, the “Hepatotoxicity (moderate)” value is 60% in series [6] (Liver) and 104 in series [11]. Besides, the “Hepatotoxicity (acute)” value in series [7] was determined as 1; in [12] (Liver) it was 0%. Moreover, the “Hepatotoxicity (choleostasis)” value in series [8] was 0. The “Hepatotoxicity (severe hepatitis)” value in series [9] (Liver) is reported as 0. For the same compound, the “Hepatotoxicity (granulomatous hepatitis)” value in [10] amounted to 0. In addition, the “Hepatotoxicity (malignant tumour)” value in [13] was 0. Further, the “Hepatotoxicity (association with vascular disease)” value in [14] was 0. In addition, the “Hepatotoxicity (time to onset)” value in series [15] is given as 4 days.

On to `CCCC(C)(COC(N)=O)COC(N)=O` [MEPROBAMATE], for which the “Hepatotoxicity (chronic liver disease)” value in series [1] came out at 0. The “Hepatotoxicity (cirrhosis)” value in series [2] came to 0. Also, the “Hepatotoxicity (cytolytic)” value in series [3] is 0. Besides, the “Hepatotoxicity (benign tumour)” value in series [4] turned out to be 0. Moreover, in series [5], the “Hepatotoxicity (steatosis)” value turned out to be 0. Further, the “Hepatotoxicity (moderate)” value in series [6] is listed as 0%; in series [11] it was 0. Further, the “Hepatotoxicity (acute)” value in series [7] was found to be 2; in series [12], 0%. For the same compound, the “Hepatotoxicity (choleostasis)” value in [8] amounted to 1. Also, the “Hepatotoxicity (severe hepatitis)” value in [9] is 0. In addition, in [10], the “Hepatotoxicity (granulomatous hepatitis)” value turned out to be 0. Further, the “Hepatotoxicity (malignant tumour)” value in series [13] was 0. In addition, in series [14], the “Hepatotoxicity (association with vascular disease)” value was 0. In addition, the “Hepatotoxicity (time to onset)” value in series [15] is given as 2 weeks - 6 months.
